Measured values taken from US8153795B2, “Substituted 1-oxa-3,8-diazaspiro[4.5]-decan-2-one-compounds and the use thereof for producing drugs” (Gruenenthal GmbH, priority 2005, dated 2012).

Biological target: T1, 5-HT transporter (Rattus norvegicus, UniProt P31652)
T1 construct: from tissue; host or cells: rat brain synaptosomes (P2 fraction) from medulla and pons
Experiment: 5-HT uptake inhibition in rat brain synaptosomes (medulla and pons), [3H]-5-HT
Type: biochemical
From the text: a) Method for Determining Noradrenalin and 5-HT Uptake Inhibition:
Synaptosomes from rat brain regions are freshly isolated for in vitro studies, as described in the publication “The isolation of nerve endings from brain” by E. G. Gray and V. P. Whittaker, J. Anatomy 96, pages 79-88, 1962. The corresponding literature description is hereby introduced as a reference and is deemed to be part of the disclosure.
The tissue (hypothalamus for the determination of noradrenalin uptake inhibition and medulla and pons for the determination of 5-HT uptake inhibition) is homogenised in ice-cooled 0.32 M sucrose (100 mg of tissue/1 mL) in a glass homogeniser with Teflon pestle using five complete up and down strokes at 840 revolutions/minute.
The homogenate is centrifuged at 4° C. for 10 minutes at 1000 g. After subsequent centrifugation at 17000 g for 55 minutes, the synaptosomes (P2 fraction) are obtained, which are resuspended in 0.32 M […] (0.5 mL/100 mg of original weight).
The particular uptake is measured in a 96-well microtitre plate. The volume is 250 μl and the incubation proceeds at room temperature (approx. 20-25° C.) under an O2 atmosphere.
The incubation time is 7.5 minutes for [^3H]-NA and 5 minutes for [^3H]-5-HT. The 96 samples are then filtered through a Unifilter GF/B® microtitre plate (Packard) and washed with 200 mL of incubated buffer using a “Brabdel MPXRI-96T Cell-Harvester”. The Unifilter GF/B plate is dried for 1 hour at 55° C. The plate is then sealed with a Back Seal® (Packard) and 35 μl of scintillation fluid are added per well (Ultima Gold®, Packard). After sealing with a top Seal® (Packard) and establishing an equilibrium (around 5 hours), radioactivity is determined in a “Trilux 1450 Microbeta” (Wallac).
The quantity of protein used in the above determination corresponds to the values known from the literature, as for example described in “Protein measurement with the folin phenol reagent”, Lowry et al., J. Biol. Chem., 193, 265-275, 1951.
A detailed description of the method may additionally be found in the literature, for example in M. Ch. Frink, H.-H. Hennies, W. Engelberger, M. Haurand and B. Wilffert (1996) Arzneim.-Forsch./Drug Res. 46 (III), 11, 1029-1036.

T1 sequence (P31652 whole entry): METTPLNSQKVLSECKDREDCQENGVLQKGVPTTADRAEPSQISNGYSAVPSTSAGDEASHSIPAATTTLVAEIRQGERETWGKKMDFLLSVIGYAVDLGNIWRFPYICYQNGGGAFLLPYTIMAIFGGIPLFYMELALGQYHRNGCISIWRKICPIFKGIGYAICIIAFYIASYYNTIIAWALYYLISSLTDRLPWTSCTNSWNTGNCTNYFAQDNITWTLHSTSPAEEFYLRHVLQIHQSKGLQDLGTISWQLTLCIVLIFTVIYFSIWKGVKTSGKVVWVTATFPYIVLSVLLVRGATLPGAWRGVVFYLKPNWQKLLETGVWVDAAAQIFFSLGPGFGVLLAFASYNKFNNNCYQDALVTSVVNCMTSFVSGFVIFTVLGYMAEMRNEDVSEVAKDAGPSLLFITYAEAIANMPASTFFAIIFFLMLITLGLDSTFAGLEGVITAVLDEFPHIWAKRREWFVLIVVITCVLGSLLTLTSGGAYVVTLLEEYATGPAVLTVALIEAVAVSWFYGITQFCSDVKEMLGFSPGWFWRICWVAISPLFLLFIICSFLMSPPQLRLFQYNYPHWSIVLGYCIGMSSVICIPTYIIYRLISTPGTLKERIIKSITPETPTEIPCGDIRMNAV

Row | SMILES | inhibition at 10 µM
1 | N#Cc1cccc(NC(=O)N2CCC3(CC2)CN(Cc2ccc(SC(F)(F)F)cc2)C(=O)O3)c1 [Example 38, 2-oxo-3-(4-trifluoromethylsulfanylbenzyl)-1-oxa-3,8-diazaspiro[4.5]decane-8-carboxylic acid (3-cyanophenyl)amide] | 52%
2 | N#Cc1ccccc1CN1CC2(CCN(C(=O)CC3(CC(=O)O)CCCC3)CC2)OC1=O [Example 71, (1-{2-[3-(2-cyanobenzyl)-2-oxo-1-oxa-3,8-diazaspiro[4.5]dec-8-yl]-2-oxoethyl}cyclopentyl)acetic acid] | 62%
3 | Cc1cc(C)cc(CN2CC3(CCN(C(=O)c4ccno4)CC3)OC2=O)c1 [Example 128, 3-(3,5-dimethylbenzyl)-8-(isoxazole-5-carbonyl)-1-oxa-3,8-diazaspiro[4.5]decan-2-one] | 62%
4 | O=C1OC2(CCN(C(=O)c3ccc(Cl)nc3)CC2)CN1Cc1ccc2ccccc2c1 [Example 120, 8-(6-chloropyridine-3-carbonyl)-3-naphthalen-2-ylmethyl-1-oxa-3,8-diazaspiro[4.5]decan-2-one] | 66%
5 | N#Cc1ccc(CN2CC3(CCN(S(=O)(=O)c4ccc5c(c4)CN(C(=O)C(F)(F)F)CC5)CC3)OC2=O)cc1 [Example 142, 4-{2-oxo-8-[2-(2,2,2-trifluoroacetyl)-1,2,3,4-tetrahydroisoquinoline-7-sulfonyl]-1-oxa-3,8-diazaspiro[4.5]dec-3-ylmethyl}benzonitrile] | 67%
6 | Cc1ccc(CN2CC3(CCN(C(=S)Nc4c(F)c(F)c(F)c(F)c4F)CC3)OC2=O)cc1 [Example 1, 3-(4-methylbenzyl)-2-oxo-1-oxa-3,8-diazaspiro[4.5]decane-8-carbothioic acid pentafluorophenylamide] | 66%
7 | CCSc1ncccc1C(=O)N1CCC2(CC1)CN(Cc1cc(C)cc(C)c1)C(=O)O2 [Example 99, 3-(3,5-dimethylbenzyl)-8-(2-ethylsulfanylpyridine-3-carbonyl)-1-oxa-3,8-diazaspiro[4.5]decan-2-one] | 73%
8 | CCC(CC)C(=O)N1CCC2(CC1)CN(Cc1cccc(C#N)c1)C(=O)O2 [Example 134, 3-[8-(2-ethylbutyryl)-2-oxo-1-oxa-3,8-diazaspiro[4.5]dec-3-ylmethyl]benzonitrile] | 64%
9 | O=C1OC2(CCN(C(=O)c3c(Cl)cccc3Cl)CC2)CN1Cc1ccccc1F [Example 139, 8-(2,6-dichlorobenzoyl)-3-(2-fluorobenzyl)-1-oxa-3,8-diazaspiro[4.5]decan-2-one] | 70%
10 | O=C1OC2(CCN(C(=S)NCc3ccccc3)CC2)CN1Cc1cccc(Br)c1 [Example 16, 3-(3-bromobenzyl)-2-oxo-1-oxa-3,8-diazaspiro[4.5]decane-8-carbothioic acid benzylamide] | 54%
11 | COc1ccc([N+](=O)[O-])cc1CN1CC2(CCN(Cc3cccc([N+](=O)[O-])c3)CC2)OC1=O [Example 88, 3-(2-methoxy-5-nitrobenzyl)-8-(3-nitrobenzyl)-1-oxa-3,8-diazaspiro[4.5]decan-2-one] | 70%
12 | CC(NC(=S)N1CCC2(CC1)CN(Cc1ccccc1-c1ccccc1)C(=O)O2)c1ccccc1 (centres unmarked) [Example 12, 3-biphenyl-2-ylmethyl-2-oxo-1-oxa-3,8-diazaspiro[4.5]decane-8-carbothioic acid (1-phenylethyl)amide] | 60%
13 | O=C(O)CC1(CC(=O)N2CCC3(CC2)CN(Cc2ccc(F)c(F)c2)C(=O)O3)CCCC1 [Example 72, (1-{2-[3-(3,4-difluorobenzyl)-2-oxo-1-oxa-3,8-diazaspiro[4.5]dec-8-yl]-2-oxoethyl}cyclopentyl)acetic acid] | 45%
14 | COc1ccc([N+](=O)[O-])cc1CN1CC2(CCN(C(=O)Cc3ccc(OC)c(OC)c3)CC2)OC1=O [Example 150, 8-[2-(3,4-dimethoxyphenyl)acetyl]-3-(2-methoxy-5-nitrobenzyl)-1-oxa-3,8-diazaspiro[4.5]decan-2-one] | 84%
